Measured values from publication PMC12196043, “In Vivo PK-PD and Drug–Drug Interaction Study of Dorzagliatin for the Management of PI3Kα Inhibitor-Induced Hyperglycemia” (Pharmaceuticals, 2025).

Legend:
OVCAR3 xenograft tumor = test: In vivo tumor growth, OVCAR3 subcutaneous xenograft tumor model; design: species or system BALB/c nude mice; conditions: n = 6
Description: This study, approved by Fudan University Ethics Committee (protocol code: 201904008Z) on 26 April 2019, was conducted in compliance with AAALAC’s International Commission guidelines for laboratory animal evaluation and accreditation. A total of 36 female BALB/c nude mice (6–8 weeks old, weighing 18–20 g) were purchased from Charles River Laboratories (Pinghu, China). The OVCAR3 ovarian cancer cell line (ATCC® HTB-161™) was used to establish human xenografts. OVCAR3 cells (10 × 10^6) suspended in 0.2 mL of Matrigel were subcutaneously inoculated into the dorsal region of each mouse. Tumors were allowed to grow until reaching a volume of ~160 mm^3, typically around 30 days post-inoculation.
WX390 was prepared in Solvent-1, comprising dimethyl sulfoxide (DMSO): methylcellulose: water at a ratio of 1:1:98 (v/v/v). BYL719 and dorzagliatin were formulated in Solvent-2, consisting of Tween 80: water with 0.5% methylcellulose (MC) solution at a ratio of 0.2:99.8 (v/v). The treatment control was a combination of Solvent-1 and Solvent-2. The test compounds were administered orally as follows: WX390 at 0.2 mg/kg, BYL719 at 25 mg/kg, and dorzagliatin at 10 mg/kg, dissolved in their respective formulations. Due to ethical considerations regarding gavage volume the administration volume across all groups was standardized to 10 μL/g of body weight.
The experiment involved six treatment groups, each comprising six mice. The groups included: (i) vehicle control, (ii) WX390 (0.2 mg/kg), (iii) BYL719 (25 mg/kg), (iv) dorzagliatin (10 mg/kg), (v) WX390 (0.2 mg/kg) + dorzagliatin (10 mg/kg), and (vi) BYL719 (25 mg/kg) + dorzagliatin (10 mg/kg). All treatments were administered via oral gavage once daily for four weeks. In the combination group of PI3Ki and dorzagliatin, dorzagliatin was administered 30 min prior to PI3Ki.
Tumor dimensions were measured biweekly using a vernier caliper. Tumor volume was calculated using the formula:(1) V=0.5a×b^2 where: • a represents the longest tumor diameter. • b represents the shortest diameter.
The antitumor efficacy of each group was evaluated using TGI or T/C. TGI (%) reflects the rate of tumor growth inhibition and is calculated as follows:(2) TGI%=1−Vend−V0exp/Vend−V0control×100% where: • Vend represents mean tumor volume at the end of treatment in the group. • V0 represents mean tumor volume at the start of treatment in the group. • exp represents the treated groups. • control represents the vehicle control group.
T/C (%) is calculated using the formula:(3) T/C%=TRTV/CRTV×100% where: • TRTV is the Relative Tumor Volume of the treatment group. • CRTV is the Relative Tumor Volume of the negative control group.
The Relative Tumor Volume (RTV) is calculated based on tumor measurement results using the formula:(4) RTV=Vt/V0 where: • V0 is the mean tumor volume at the time of grouping (day 0). • Vt is the mean tumor volume at a given measurement time.
TRTV and CRTV are based on data from the same day.
At the conclusion of the experiment, tumor weights were measured, and the T/C was calculated. Tweight and Cweight represent the tumor weights of the treatment group and the vehicle control group, respectively.

P-gp = conditions: cited from earlier work
[1] = cited from earlier work
[2] = based on tumor volume on day 28, vs vehicle
[3] = co-administration with moderate CYP3A4 inhibitors such as verapamil, fluconazole, erythromycin

## CC(C)C[C@@H](C(=O)Nc1ccn(C[C@@H](O)CO)n1)N1CC(Oc2ccccc2Cl)=CC1=O [Dorz, Dorzagliatin]
OVCAR3 xenograft tumor; [2]
  T/C (Relative Tumor Growth Rate): 90.81%
  TGI (Tumor Growth Inhibition): 10.19%
OVCAR3 xenograft tumor; day 28 after administration, oral once daily, Dorz 10 mg/kg, WX390 0.2 mg/kg, BYL719 25 mg/kg, vehicle 1582 mm^3
  Tumor Volume (Day 28): 1437 ± 172 mm^3
P-gp
  P-gp substrate status: substrate of P-gp
[1]; T2DM patients, twice-daily oral administration
  time to steady-state plasma pharmacokinetics: ≤ 4 days
[1]; after oral administration
  AUCtau: 5570 ng·h/mL
  Cmax: 1090 ng/mL
  median Tmax: 1.31 h
[1]
  Metabolism: primarily occurs in the liver via cytochrome P450 enzyme 3A4 (CYP3A4)
[1]; [3]
  fold increase in AUC0→t of dorzagliatin: 2.4 fold
  fold increase in Cmax of dorzagliatin: 1.2 fold
[1]; single 50 mg oral dose, healthy subjects
  mean apparent volume of distribution: 115 L
